# Measured values from patent US5840684A, “Glycopeptide antibiotic derivatives” (Eli Lilly and Company, priority 1995, dated 1998).
# Legend:
# [1] = system: vancomycin-susceptible enterococci; assay: broth micro-dilution, mean geometric MIC; assay type: cell-based, Enterococcus faecium and Enterococcus faecalis; settings: enterococci, 24-hour incubation
# [2] = system: Staphylococcus aureus 489; assay: broth micro-dilution MIC; assay type: cell-based
# Experimental: (§1) The MIC's were determined using a standard broth micro-dilution assay.
# [3] = system: Staphylococcus aureus 446; assay: broth micro-dilution MIC; assay type: cell-based
# Experimental: as §1
# [4] = system: Staphylococcus aureus SA1199; assay: broth micro-dilution MIC; assay type: cell-based
# Experimental: as §1
# [5] = system: Staphylococcus aureus X400; assay: broth micro-dilution MIC; assay type: cell-based
# Experimental: as §1
# [6] = system: Streptococcus pyogenes C203; assay: broth micro-dilution MIC; assay type: cell-based
# Experimental: as §1
# [7] = system: Entercoccus faecium 180-1; assay: broth micro-dilution MIC; assay type: cell-based
# Experimental: as §1
# [8] = system: Staphylococcus aureus SA1199A; assay: broth micro-dilution MIC; assay type: cell-based
# Experimental: as §1
# [9] = system: Staphylococcus aureus 447; assay: broth micro-dilution MIC; assay type: cell-based
# Experimental: as §1
# [10] = system: vancomycin-resistant enterococci; assay: broth micro-dilution, mean geometric MIC; assay type: cell-based, Enterococcus faecium and Enterococcus faecalis; settings: enterococci, 24-hour incubation
# Entercoccus faecium 180 = assay: broth micro-dilution MIC; assay type: cell-based; settings: Entercoccus faecium 180
# Experimental: (§2) The formula I compounds have in vitro and in vivo activity against Gram-positive pathogenic bacteria. The MIC's were determined using a standard broth micro-dilution assay.
# Entercoccus faecium 2041 = assay: broth micro-dilution MIC; assay type: cell-based; settings: Entercoccus faecium 2041
# Experimental: as §2
# [11] = system: Haemophilus influenzae RD; assay: broth micro-dilution MIC; assay type: cell-based; settings: Haemophilus influenzae RD
# Experimental: as §2
# [12] = system: Staphylococcus haemolyticus 415; assay: broth micro-dilution MIC; assay type: cell-based
# Experimental: as §2
# [13] = system: Staphylococcus epidermidis 270; assay: broth micro-dilution MIC; assay type: cell-based
# Experimental: as §2
# [14] = system: Staphylococcus haemolyticus 105; assay: broth micro-dilution MIC; assay type: cell-based
# Experimental: as §2
# [15] = system: Streptococcus pneumoniae P1; assay: broth micro-dilution MIC; assay type: cell-based
# Experimental: as §2
# [16] = system: Staphylococcus aureus S13E; assay type: cell-based
# Experimental: as §1
# [17] = system: Staphylococcus aureus SA1199B; assay type: cell-based
# Experimental: as §1
# Entercoccus faecium 276 = assay: broth micro-dilution MIC; assay type: cell-based
# Experimental: as §1
# [18] = system: Staphylococcus aureus X778; assay: broth micro-dilution MIC; assay type: cell-based
# Experimental: as §1
# [19] = system: Enterococcus gallinarum 245; assay: broth micro-dilution MIC; assay type: cell-based; settings: Enterococcus gallinarum 245
# Experimental: as §2
smiles,measurement,setting,value
CNC(CC(C)C)C(=O)NC1C(=O)NC(CC(N)=O)C(=O)NC2C(=O)NC3C(=O)NC(C(=O)NC(C(=O)O)c4cc(O)cc(O)c4-c4cc3ccc4O)C(OC3CC(C)(N)C(O)C(C)O3)c3ccc(c(Cl)c3)Oc3cc2cc(c3OC2OC(CO)C(O)C(O)C2OC2CC(C)(NCc3ccc(-c4ccc(O)cc4)cc3)C(O)C(C)O2)Oc2ccc(cc2Cl)C1O (stereo not drawn) [Compound 20],"mean geometric MIC, Vancomycin Sensitive Strains",[1],0.38 µg/mL
same,MIC,[2],0.5 µg/mL
same,MIC,[3],0.5 µg/mL
same,MIC,[4],2 µg/mL
same,MIC,[5],0.5 µg/mL
same,MIC,[6],≤ 0.06 µg/mL
same,MIC,[7],≤ 0.06 µg/mL
same,MIC,[8],≤ 0.06 µg/mL
same,MIC,[9],4 µg/mL
same,"mean geometric MIC, Vancomycin Resistant Strains",[10],4.8 µg/mL
same,MIC,Entercoccus faecium 180,1 µg/mL
same,MIC,Entercoccus faecium 2041,≤ 0.06 µg/mL
same,MIC,[11],8 µg/mL
same,MIC,[12],4 µg/mL
same,MIC,[13],2 µg/mL
same,MIC,[14],8 µg/mL
same,MIC,[15],≤ 0.06 µg/mL
same,MIC,[16],≤ 0.06 µg/mL
same,MIC,[17],0.5 µg/mL
CNC(CC(C)C)C(=O)NC1C(=O)NC(CC(N)=O)C(=O)NC2C(=O)NC3C(=O)NC(C(=O)NC(C(=O)O)c4cc(O)cc(O)c4-c4cc3ccc4O)C(OC3CC(C)(N)C(O)C(C)O3)c3ccc(c(Cl)c3)Oc3cc2cc(c3OC2OC(CO)C(O)C(O)C2OC2CC(C)(NCc3ccc(Oc4ccccc4[N+](=O)[O-])cc3)C(O)C(C)O2)Oc2ccc(cc2Cl)C1O (stereo not drawn) [Compound 70],"mean geometric MIC, Vancomycin Sensitive Strains",[1],0.092 µg/mL
same,MIC,[2],≤ 0.06 µg/mL
same,MIC,[4],≤ 0.06 µg/mL
same,MIC,Entercoccus faecium 276,≤ 0.06 µg/mL
same,MIC,[5],≤ 0.06 µg/mL
same,MIC,[18],≤ 0.06 µg/mL
same,MIC,[7],≤ 0.06 µg/mL
same,MIC,[8],≤ 0.06 µg/mL
same,MIC,[9],0.5 µg/mL
same,"mean geometric MIC, Vancomycin Resistant Strains",[10],2.0 µg/mL
same,MIC,Entercoccus faecium 180,0.5 µg/mL
same,MIC,Entercoccus faecium 2041,≤ 0.06 µg/mL
same,MIC,[11],16 µg/mL
same,MIC,[12],2 µg/mL
same,MIC,[13],0.25 µg/mL
same,MIC,[19],2 µg/mL
same,MIC,[14],2 µg/mL
same,MIC,[16],≤ 0.06 µg/mL
same,MIC,[17],≤ 0.06 µg/mL
CNC(CC(C)C)C(=O)NC1C(=O)NC(CC(N)=O)C(=O)NC2C(=O)NC3C(=O)NC(C(=O)NC(C(=O)O)c4cc(O)cc(O)c4-c4cc3ccc4O)C(OC3CC(C)(N)C(O)C(C)O3)c3ccc(c(Cl)c3)Oc3cc2cc(c3OC2OC(CO)C(O)C(O)C2OC2CC(C)(NCc3ccc(I)s3)C(O)C(C)O2)Oc2ccc(cc2Cl)C1O (stereo not drawn) [Compound 74],MIC,[2],≤ 0.06 µg/mL
same,MIC,[3],4 µg/mL
same,MIC,[4],≤ 0.06 µg/mL
same,MIC,[5],≤ 0.06 µg/mL
same,MIC,[18],≤ 0.06 µg/mL
same,MIC,[6],≤ 0.06 µg/mL
same,MIC,[7],≤ 0.06 µg/mL
same,MIC,[8],≤ 0.06 µg/mL
same,MIC,[9],1 µg/mL
same,"mean geometric MIC, Vancomycin Resistant Strains",[10],11 µg/mL
same,MIC,Entercoccus faecium 180,0.5 µg/mL
same,MIC,Entercoccus faecium 2041,≤ 0.06 µg/mL
same,MIC,[11],0.5 µg/mL
same,MIC,[12],4 µg/mL
same,MIC,[13],0.5 µg/mL
same,MIC,[19],≤ 0.06 µg/mL
same,MIC,[14],4 µg/mL
same,MIC,[15],≤ 0.06 µg/mL
same,MIC,[16],0 µg/mL
same,MIC,[17],1 µg/mL
CNC(CC(C)C)C(=O)NC1C(=O)NC(CC(N)=O)C(=O)NC2C(=O)NC3C(=O)NC(C(=O)NC(C(=O)O)c4cc(O)cc(O)c4-c4cc3ccc4O)C(OC3CC(C)(N)C(O)C(C)O3)c3ccc(c(Cl)c3)Oc3cc2cc(c3OC2OC(CO)C(O)C(O)C2OC2CC(C)(NCc3ccc(OCCOCCCl)cc3)C(O)C(C)O2)Oc2ccc(cc2Cl)C1O (stereo not drawn) [Compound 75],"mean geometric MIC, Vancomycin Sensitive Strains",[1],0.50 µg/mL
same,MIC,[2],≤ 0.06 µg/mL
same,MIC,[3],2 µg/mL
same,MIC,[4],2 µg/mL
same,MIC,Entercoccus faecium 276,≤ 0.06 µg/mL
same,MIC,[5],≤ 0.06 µg/mL
same,MIC,[18],≤ 0.06 µg/mL
same,MIC,[6],≤ 0.06 µg/mL
same,MIC,[7],≤ 0.06 µg/mL
same,MIC,[8],≤ 0.06 µg/mL
same,MIC,[9],1 µg/mL
same,"mean geometric MIC, Vancomycin Resistant Strains",[10],16 µg/mL
same,MIC,Entercoccus faecium 180,0.5 µg/mL
same,MIC,Entercoccus faecium 2041,≤ 0.06 µg/mL
same,MIC,[11],2 µg/mL
same,MIC,[12],4 µg/mL
same,MIC,[13],0.5 µg/mL
same,MIC,[19],4 µg/mL
same,MIC,[14],2 µg/mL
same,MIC,[15],≤ 0.06 µg/mL
same,MIC,[16],0 µg/mL
same,MIC,[17],0.5 µg/mL
CNC(CC(C)C)C(=O)NC1C(=O)NC(CC(N)=O)C(=O)NC2C(=O)NC3C(=O)NC(C(=O)NC(C(=O)O)c4cc(O)cc(O)c4-c4cc3ccc4O)C(OC3CC(C)(N)C(O)C(C)O3)c3ccc(c(Cl)c3)Oc3cc2cc(c3OC2OC(CO)C(O)C(O)C2OC2CC(C)(NCCc3ccc4ccccc4c3)C(O)C(C)O2)Oc2ccc(cc2Cl)C1O (stereo not drawn) [Compound 179],"mean geometric MIC, Vancomycin Sensitive Strains",[1],0.060 µg/mL
same,MIC,[2],≤ 0.06 µg/mL
same,MIC,[4],1 µg/mL
same,MIC,Entercoccus faecium 276,≤ 0.06 µg/mL
same,MIC,[5],≤ 0.06 µg/mL
same,MIC,[18],≤ 0.06 µg/mL
same,MIC,[6],≤ 0.06 µg/mL
same,MIC,[7],≤ 0.06 µg/mL
same,MIC,[8],≤ 0.06 µg/mL
same,"mean geometric MIC, Vancomycin Resistant Strains",[10],1.7 µg/mL
same,MIC,Entercoccus faecium 180,≤ 0.06 µg/mL
same,MIC,Entercoccus faecium 2041,≤ 0.06 µg/mL
same,MIC,[11],4 µg/mL
same,MIC,[12],1 µg/mL
same,MIC,[19],1 µg/mL
same,MIC,[14],0.5 µg/mL
same,MIC,[15],≤ 0.06 µg/mL
CNC(CC(C)C)C(=O)NC1C(=O)NC(CC(N)=O)C(=O)NC2C(=O)NC3C(=O)NC(C(=O)NC(C(=O)O)c4cc(O)cc(O)c4-c4cc3ccc4O)C(O)c3ccc(c(Cl)c3)Oc3cc2cc(c3OC2OC(CO)C(O)C(O)C2OC2CC(C)(NCc3ccc(-c4ccccc4)cc3)C(O)C(C)O2)Oc2ccc(cc2Cl)C1O (stereo not drawn) [Compound 181],"mean geometric MIC, Vancomycin Sensitive Strains",[1],0.060 µg/mL
same,MIC,[2],≤ 0.06 µg/mL
same,MIC,[3],≤ 0.06 µg/mL
same,MIC,[4],≤ 0.06 µg/mL
same,MIC,Entercoccus faecium 276,2 µg/mL
same,MIC,[5],≤ 0.06 µg/mL
same,MIC,[18],≤ 0.06 µg/mL
same,MIC,[6],≤ 0.06 µg/mL
same,MIC,[7],≤ 0.06 µg/mL
same,MIC,[8],≤ 0.06 µg/mL
same,MIC,[9],≤ 0.06 µg/mL
same,"mean geometric MIC, Vancomycin Resistant Strains",[10],8.0 µg/mL
same,MIC,Entercoccus faecium 180,4 µg/mL
same,MIC,[11],32 µg/mL
same,MIC,[12],1 µg/mL
same,MIC,[19],≤ 0.06 µg/mL
same,MIC,[14],0.25 µg/mL
same,MIC,[15],≤ 0.06 µg/mL
same,MIC,[16],≤ 0.06 µg/mL
same,MIC,[17],≤ 0.06 µg/mL
CNC(CC(C)C)C(=O)NC1C(=O)NC(CC(N)=O)C(=O)NC2C(=O)NC3C(=O)NC(C(=O)NC(C(=O)O)c4cc(O)cc(O)c4-c4cc3ccc4O)C(OC3CC(C)(N)C(O)C(C)O3)c3ccc(c(Cl)c3)Oc3cc2cc(c3OC2OC(CO)C(O)C(O)C2OC2CC(C)(NCCCCCCc3ccccc3)C(O)C(C)O2)Oc2ccc(cc2Cl)C1O (stereo not drawn) [Compound 196],"mean geometric MIC, Vancomycin Sensitive Strains",[1],0.027 µg/mL
same,MIC,[2],1 µg/mL
same,MIC,[3],0.5 µg/mL
same,MIC,[4],0.5 µg/mL
same,MIC,[5],0.5 µg/mL
same,MIC,[18],1 µg/mL
same,MIC,[6],≤ 0.06 µg/mL
same,MIC,[7],≤ 0.06 µg/mL
same,MIC,[8],≤ 0.06 µg/mL
same,MIC,[9],0.5 µg/mL
same,"mean geometric MIC, Vancomycin Resistant Strains",[10],1.7 µg/mL
same,MIC,Entercoccus faecium 180,0.5 µg/mL
same,MIC,Entercoccus faecium 2041,≤ 0.06 µg/mL
same,MIC,[11],32 µg/mL
same,MIC,[12],1 µg/mL
same,MIC,[19],1 µg/mL
same,MIC,[14],0.5 µg/mL
same,MIC,[15],≤ 0.06 µg/mL
same,MIC,[16],1 µg/mL
same,MIC,[17],0.5 µg/mL
CNC(CC(C)C)C(=O)NC1C(=O)NC(CC(N)=O)C(=O)NC2C(=O)NC3C(=O)NC(C(=O)NC(C(=O)O)c4cc(O)cc(O)c4-c4cc3ccc4O)C(OC3CC(C)(N)C(O)C(C)O3)c3ccc(c(Cl)c3)Oc3cc2cc(c3OC2OC(CO)C(O)C(O)C2OC2CC(C)(NCc3ccc(-c4ccccc4C)c(C)c3)C(O)C(C)O2)Oc2ccc(cc2Cl)C1O (stereo not drawn) [Compound 237],"mean geometric MIC, Vancomycin Sensitive Strains",[1],0.048 µg/mL
same,MIC,[2],0.5 µg/mL
same,MIC,[3],2 µg/mL
same,MIC,[4],1 µg/mL
same,MIC,Entercoccus faecium 276,1 µg/mL
same,MIC,[5],1 µg/mL
same,MIC,[18],0.5 µg/mL
same,MIC,[6],≤ 0.06 µg/mL
same,MIC,[7],≤ 0.06 µg/mL
same,MIC,[8],≤ 0.06 µg/mL
same,MIC,[9],1 µg/mL
same,"mean geometric MIC, Vancomycin Resistant Strains",[10],1.0 µg/mL
same,MIC,Entercoccus faecium 2041,0.125 µg/mL
same,MIC,[11],8 µg/mL
same,MIC,[12],1 µg/mL
same,MIC,[13],0.5 µg/mL
same,MIC,[19],1 µg/mL
same,MIC,[14],1 µg/mL
same,MIC,[15],≤ 0.06 µg/mL
